In ChEMBL document CHEMBL1275507, “Genomic analysis reveals a point mutation in the two-component sensor gene graS that leads to intermediate vancomycin resistance in clinical Staphylococcus aureus” (2008):
In brackets after ≈: the same amount, converted by molar mass.

Legend:
Staphylococcus aureus [1] = experiment: Antimicrobial activity against 2 mCF Staphylococcus aureus isolate JKD6208 harboring graS T136I mutant gene by Etest method
Staphylococcus aureus [2] = experiment: Antimicrobial activity against 2 MCF vancomycin-intermediate Staphylococcus aureus isolate JKD6008 by Etest method
Staphylococcus aureus [3] = experiment: Antimicrobial activity against 2 MCF graRS-deficient Staphylococcus aureus isolate JKD6205 harboring pCu1 plasmid by Etest method
Staphylococcus aureus [4] = experiment: Antimicrobial activity against 2 MCF graRS-deficient Staphylococcus aureus isolate JKD6196 by Etest method
Staphylococcus aureus [5] = experiment: Antimicrobial activity against 2 MCF graRS-deficient Staphylococcus aureus isolate JKD6206 harboring plasmid JKD6151 by Etest method

Compound: CN[C@H](CC(C)C)C(=O)N[C@H]1C(=O)N[C@@H](CC(N)=O)C(=O)N[C@H]2C(=O)N[C@H]3C(=O)N[C@H](C(=O)N[C@H](C(=O)O)c4cc(O)cc(O)c4-c4cc3ccc4O)[C@H](O)c3ccc(c(Cl)c3)Oc3cc2cc(c3O[C@@H]2O[C@H](CO)[C@@H](O)[C@H](O)[C@H]2O[C@H]2C[C@](C)(N)[C@H](O)[C@H](C)O2)Oc2ccc(cc2Cl)[C@H]1O [VANCOMYCIN]
- MIC (Staphylococcus aureus [1]): 6 µg/mL (≈ 4.14 µM)
- MIC (Staphylococcus aureus [2]): 8 µg/mL (≈ 5.52 µM)
- MIC (Staphylococcus aureus [3]): 1.5 µg/mL (≈ 1.04 µM)
- MIC (Staphylococcus aureus [4]): 1.5 µg/mL (≈ 1.04 µM)
- MIC (Staphylococcus aureus [5]): 3 µg/mL (≈ 2.07 µM)
